Results published in PMC11813147, “Bioactivity assessment of peptides derived from salted jellyfish (Rhopilema hispidum) byproducts” (PLOS ONE, 2025).

Columns and labels:
[1] = DPPH radical scavenging assay; format: biochemical; conditions: for DPPH, mean±SD / DPPH: supplement tables; for DPPH, mean±SD / DPPH radical scavenging activity (TEAC): n = 3, mean ± SD; for DPPH radical scavenging activity (TEAC): 10 µL sample + 190 µL 0.1 mM DPPH in 70% ethanol, 30 min dark, room temperature, 517 nm, Trolox standard curve
Experimental: The DPPH radical scavenging activity of the sample was assessed following a modified protocol based on a previous study. In each well of a 96-well plate, 10 μL of the sample was added, followed by 190 μL of 0.1 mM DPPH solution in 70% ethanol. The mixture was then incubated at room temperature in the dark for 30 min. After the incubation period, the absorbance of the mixture was measured at 517 nm. The DPPH radical scavenging activity was calculated using the following equation (1):
DPPHradicalscavengingactivity%=Acontrol–Asample/Acontrol×100 (1)
In this equation, Acontrol represents the absorbance of a control solution containing all reagents except for the test samples, while Asample is the absorbance of the mixture (the sample combined with 0.1 mM DPPH). To determine the Trolox equivalent antioxidant capacity (TEAC), a Trolox standard curve was utilized. The results were expressed as millimoles of Trolox equivalents per milligram of protein (mM TE/mg protein).

[2] = tested on: angiotensin I-converting enzyme (ACE); assay: ACE inhibitory activity assay (fluorometric ACE activity assay kit); format: biochemical; conditions: peptide sample 1 mg/mL; for ACE inhibitory activity, mean±SD / inhibition: 37 °C, fluorescence ex 320/em 405 nm, n = 3, mean ± SD
Experimental: The ACE inhibitory activity assay was performed following the method outlined by Batista et al., with slight modifications, using a fluorometric angiotensin I-converting enzyme (ACE) activity assay kit from Sigma-Aldrich (catalog number CS0002), Burlington, Massachusetts, USA. In summary, 10 µ L of the sample (1 mg/mL for the peptide sample and 50 µg/mL for ramipril) was combined with 40 µ L of the ACE solution (CS0002B) in 96-well flat-bottom black plates at 37 °C for 5 min. Next, 50 µ L of the substrate solution (CS0002C) was added to this mixture to initiate the reaction. A fluorescence multiwell plate reader was used to monitor the changes in fluorescence. The sample’s fluorescence was measured every min for 5 min, with excitation at 320 nm and emission at 405 nm. All reagents, except the test sample, were prepared to assess the ACE positive control activity. A kit standard solution (CS0002D) was diluted with assay buffer (CS0002A) to create different concentrations (nmol) of the standard solution, allowing generation of a standard curve. The slope of the standard curve (RFU/nmol) and the slope of the sample kinetic curve were utilized to calculate the ACE activity using the following equation (3):
ACEactivitynmol/min=Slopesample/Slopestandard×DF (3)
Where Slopesample refers to the slope of the blank-subtracted sample curve (RFU/min), Slopestandard refers to the slope of the blank-subtracted standard curve (RFU/nmol), DF is the dilution factor, and 0.1 nmol/min is equivalent to […].
In this study, the results of ACE inhibitory activity are expressed as percentages. The ACE inhibitory activity (%) was calculated using the following equation (4):
ACEinhibitoryactivity%=ACEPC–ACES/ACEPC×100 (4)
Where ACEPC represents the ACE activity of the positive control, and ACES denotes the ACE activity of the sample.

| Sequence | DPPH, mean±SD [1] | DPPH ([1]; replicate 1) [TE/mg protein] | DPPH ([1]; replicate 2) [TE/mg protein] | DPPH ([1]; replicate 3) [TE/mg protein] | ACE inhibitory activity, mean±SD ([2]; SD) | ACE inhibitory activity ([2]; replicate 1) [%] | ACE inhibitory activity ([2]; replicate 2) [%] | ACE inhibitory activity ([2]; replicate 3) [%] | inhibition ([2]; SD) [%] | DPPH radical scavenging activity (TEAC) [1] | DPPH radical scavenging activity (TEAC) ([1]; listed as MVVACVLPEA) [mM TE/mg protein] | ACE inhibitory activity, mean±SD [2] [%] |
| --- | --- | --- | --- | --- | --- | --- | --- | --- | --- | --- | --- | --- |
| DAENKENVEE [P18, synthesized peptide identified from jellyfish fraction PUR20C] | 6.03±0.79^D TE/mg protein | 5.23 | 6.03 | 6.82 | 22.80±2.33^G % | 20.13 | 23.85 | 24.42 | – | – | – | – |
| EIDKLPPESRP [P7, synthesized peptide identified from jellyfish fraction PUR20C] | 1.96 TE/mg protein | 1.52 | 1.78 | 2.58 | – | 8.11 | 8.96 | 8.96 | 8.68 ± 0.49 | – | – | – |
| EQIYPMGEGDEL [P4, synthesized peptide identified from jellyfish fraction PUR20C] | 3.81±0.30^E TE/mg protein | 3.64 | 3.64 | 4.17 | 5.15±0.92^J % | 5.53 | 4.10 | 5.82 | – | – | – | – |
| GKNCGETVWE [P9, synthesized peptide identified from jellyfish fraction PUR20C] | 40.86±0.85^C TE/mg protein | 40.24 | 41.83 | 40.51 | – | 5.53 | 8.68 | 8.39 | 7.53 ± 1.74 | – | – | – |
| HSVLTASYRN [P5, synthesized peptide identified from jellyfish fraction PUR20C] | 3.20 TE/mg protein | 2.84 | 3.11 | 3.64 | 29.10±3.81^F % | 24.71 | 31.01 | 31.58 | – | – | – | – |
| KFNEVVYFL [P15, synthesized peptide identified from jellyfish fraction PUR20C] | 6.20±1.00^D TE/mg protein | 5.49 | 5.76 | 7.35 | 55.43±3.55^C % | 57.63 | 51.33 | 57.34 | – | – | – | – |
| LGAEGRSP [P13, synthesized peptide identified from jellyfish fraction PUR20C] | 5.85±0.66^D TE/mg protein | 5.23 | 5.76 | 6.56 | 20.51±1.81^G % | 21.56 | 18.41 | 21.56 | – | – | – | – |
| LNIPKPKLNLL [P11, synthesized peptide identified from jellyfish fraction PUR20C] | 3.81±0.40^E TE/mg protein | 3.90 | 3.37 | 4.17 | 22.90±3.15^G % | 19.27 | 25.00 | 24.42 | – | – | – | – |
| MVVACVLPEA [P16, synthesized peptide identified from jellyfish fraction PUR20C] | 56.07±0.30^A TE/mg protein | 55.89 | 55.89 | 56.42 | – | 92.27 | 89.69 | 93.12 | – | strongest DPPH radical scavenging activity | 56.07 | 91.69 |
| NQKAMQELNE [P1, synthesized peptide identified from jellyfish fraction PUR20C] | 1.16±0.15^H TE/mg protein | 0.99 | 1.25 | 1.25 | – | 6.67 | 6.67 | 6.10 | 6.48 ± 0.33 | – | – | – |
| PFTMYFLL [P14, synthesized peptide identified from jellyfish fraction PUR20C] | 6.29±0.53^D TE/mg protein | 6.29 | 5.76 | 6.82 | 81.87±0.33^B % | 81.67 | 81.67 | 82.25 | – | – | – | – |
| PMETDDQPNN [P17, synthesized peptide identified from jellyfish fraction PUR20C] | 5.23±0.53^D TE/mg protein | 4.70 | 5.23 | 5.76 | 12.40±2.23^H % | 9.82 | 13.54 | 13.83 | – | – | – | – |
| RARVVPMY [P6, synthesized peptide identified from jellyfish fraction PUR20C] | 3.28 TE/mg protein | 3.11 | 2.84 | 3.90 | 33.68±0.59^E % | 33.87 | 33.01 | 34.16 | – | – | – | – |
| RPLAKIIP [P8, synthesized peptide identified from jellyfish fraction PUR20C] | 2.22 TE/mg protein | 1.78 | 1.78 | 3.11 | 29.96±3.35^F % | 32.44 | 26.14 | 31.29 | – | – | – | – |
| TDSPAPSETTD [P2, synthesized peptide identified from jellyfish fraction PUR20C] | 2.84 TE/mg protein | 2.31 | 3.11 | 3.11 | 0.85±0.33^K % | 0.66 | 1.24 | 0.66 | – | – | – | – |
